Experimental data from patent publication US12139520B2 (priority 2020, dated 2024).
Numbered stars: 1 amine (or outer) side, 2 acyl side, 3 side chain; on linkers, the order of the positions; unused ones are H or OH. Bridge positions count the residues as written; N and C are the ends. Square brackets hold non-standard residues; d marks the D form. Peptide text beside a SMILES is read from it. * marks the point of attachment. C20 diacid = O=C(O)CCCCCCCCCCCCCCCCCCC(=O)*; γGlu = O=C(O)[C@H](CCC(=O)[*:2])N[*:1]; Hyp = O=C(O)[C@@H]1C[C@@H](O)CN1; NMeI = CC[C@H](C)[C@H](NC)C(=O)O; Aad = N[C@@H](CCCC(=O)O)C(=O)O; Sar = CNCC(=O)O

Columns and labels:
hAMY3 receptor = target: T1, hAMY3 receptor (Homo sapiens, UniProt O60896+P30988); test: cAMP assay for in vitro receptor activation, hAMY3-R; assay type: cell-based; settings: cAMP assay, hAMY3 receptor; read-out: hAMY3R EC50
T1 sequence (P30988 25-474): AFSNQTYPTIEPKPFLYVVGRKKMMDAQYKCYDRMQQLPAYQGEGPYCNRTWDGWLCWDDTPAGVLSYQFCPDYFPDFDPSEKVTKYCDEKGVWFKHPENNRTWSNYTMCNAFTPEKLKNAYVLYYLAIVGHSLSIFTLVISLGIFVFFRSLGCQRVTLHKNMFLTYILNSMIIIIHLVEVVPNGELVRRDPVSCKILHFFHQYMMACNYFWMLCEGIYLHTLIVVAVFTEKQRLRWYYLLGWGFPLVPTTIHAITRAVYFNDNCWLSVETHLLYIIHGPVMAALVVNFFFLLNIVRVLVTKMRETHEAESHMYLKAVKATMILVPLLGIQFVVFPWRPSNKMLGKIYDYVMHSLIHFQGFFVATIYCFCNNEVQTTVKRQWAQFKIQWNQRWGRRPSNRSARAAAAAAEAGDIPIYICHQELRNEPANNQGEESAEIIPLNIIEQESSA
T1 sequence (O60896 24-148 partner): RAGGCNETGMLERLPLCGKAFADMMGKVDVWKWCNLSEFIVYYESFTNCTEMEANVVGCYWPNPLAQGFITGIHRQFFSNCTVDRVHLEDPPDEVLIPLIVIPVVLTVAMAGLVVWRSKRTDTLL
Summary of the method: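 Thawed cells from a sub-cloned monoclonal hAMY3-overexpressing line are plated in DPBS containing 0.05% casein and 0.5 mM IBMX. Test compounds are added immediately at graded doses for 30 min at room temperature. Reagents for cAMP detection are then added, and TR-FRET is recorded after one hour.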

hAM1 receptor = hAM1 receptor (Homo sapiens, UniProt O60895+Q16602); test: cAMP assay for in vitro receptor activation, hAM1-R; assay type: cell-based; settings: cAMP assay, hAM1 receptor; read-out: hAM1R EC50
Summary of the method: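 Read-out is intracellular cAMP as a measure of receptor activation. Cells stably overexpressing hAM1 were subcloned to a monoclonal line, then thawed and seeded at 8000 cells/well in DPBS with 0.05% casein and the phosphodiesterase inhibitor IBMX at 0.5 mM.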

hAM1 receptor, sequence (Q16602 23-461): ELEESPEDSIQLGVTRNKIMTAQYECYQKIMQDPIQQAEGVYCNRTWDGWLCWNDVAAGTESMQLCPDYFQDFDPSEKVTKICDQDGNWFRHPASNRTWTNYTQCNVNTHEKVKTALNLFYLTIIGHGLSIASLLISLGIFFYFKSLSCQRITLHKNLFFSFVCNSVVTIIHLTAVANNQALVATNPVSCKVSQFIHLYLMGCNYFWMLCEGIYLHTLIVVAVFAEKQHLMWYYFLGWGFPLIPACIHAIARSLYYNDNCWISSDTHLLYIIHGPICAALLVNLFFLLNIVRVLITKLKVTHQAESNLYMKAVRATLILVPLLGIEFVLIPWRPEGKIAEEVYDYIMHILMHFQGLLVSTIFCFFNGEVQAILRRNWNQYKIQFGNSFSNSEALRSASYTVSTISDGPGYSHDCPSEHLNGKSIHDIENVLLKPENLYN
hAM1 receptor, sequence (O60895 43-175 partner): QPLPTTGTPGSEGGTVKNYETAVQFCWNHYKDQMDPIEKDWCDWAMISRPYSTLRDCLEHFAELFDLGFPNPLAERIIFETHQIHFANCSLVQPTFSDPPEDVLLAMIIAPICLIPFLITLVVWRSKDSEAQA

EC50 (hAMY3 receptor) [nM] | EC50 (hAM1 receptor) [nM] | Compound
0.013 | > 5000 | CC[C@H](C)[C@H](NC(=O)[C@H](CCC(N)=O)NC(=O)[C@H](Cc1c[nH]cn1)NC(=O)[C@H](C)NC(=O)[C@H](CC(C)C)NC(=O)[C@H](CCCNC(=N)N)NC(=O)[C@H](CCC(N)=O)NC(=O)[C@@H](NC(=O)[C@@H](NC(=O)[C@@H]1CSSC[C@H](NC(=O)[C@@H](N)CCCCN)C(=O)N[C@@H](CC(N)=O)C(=O)N[C@@H]([C@@H](C)O)C(=O)N[C@@H](C)C(=O)N[C@@H]([C@@H](C)O)C(=O)N1)[C@@H](C)O)C(C)C)C(=O)N[C@@H](Cc1ccc(O)cc1)C(=O)N[C@@H](CCC(N)=O)C(=O)N[C@@H](Cc1ccccc1)C(=O)N[C@H](C(=O)N[C@@H](CC(=O)O)C(=O)N[C@@H](CCCCN)C(=O)N[C@@H](CC(=O)O)C(=O)N[C@@H](CCCCN)C(=O)N[C@@H](CC(=O)O)C(=O)N[C@@H](CC(N)=O)C(=O)N[C@H](C(=O)N[C@@H](C)C(=O)N1CCC[C@H]1C(=O)N1CCC[C@H]1C(=O)N[C@H](C(=O)N[C@@H](CC(N)=O)C(=O)N[C@H](C(=O)NCC(=O)N[C@@H](CO)C(=O)N[C@@H](CC(N)=O)C(=O)NCC(=O)N1C[C@H](O)C[C@H]1C(N)=O)C(C)C)[C@@H](C)O)C(C)C)[C@@H](C)O [compound 75] (H-KCNTATCTVQRLAHQIYQFTDKDKDNVAPPTNVGSNG[Hyp]-NH2; disulfide 2-7; N-terminus assumed)
0.014 | > 5000 | CC[C@H](C)[C@@H](C(=O)N[C@@H](CC(C)C)C(=O)N[C@@H](CO)C(=O)N[C@@H](CO)C(=O)N[C@H](C(=O)N[C@@H](CCC(=O)O)C(=O)N[C@H](C(=O)NCC(=O)N[C@@H](CO)C(=O)N[C@@H](CC(N)=O)C(=O)N[C@H](C(=O)N1C[C@H](O)C[C@H]1C(N)=O)[C@@H](C)O)C(C)C)[C@@H](C)O)N(C)C(=O)[C@H](C)NC(=O)CN(C)C(=O)[C@H](Cc1ccccc1)NC(=O)[C@H](CO)NC(=O)[C@H](CO)NC(=O)[C@H](CCCNC(=N)N)NC(=O)[C@H](CCC(N)=O)NC(=O)[C@H](CC(C)C)NC(=O)[C@H](Cc1ccccc1)NC(=O)[C@H](CCCC(=O)O)NC(=O)[C@H](C)NC(=O)[C@H](CC(C)C)NC(=O)[C@H](CCCNC(=N)N)NC(=O)[C@H](CCC(=O)O)NC(=O)[C@@H](NC(=O)[C@H](C)NC(=O)[C@@H]1CSSC[C@H](NC(=O)[C@H](CCCNC(=N)N)NC(=O)CC[C@H](NC(=O)CCCCCCCCCCCCCCCCCCC(=O)O)C(=O)O)C(=O)NCC(=O)N[C@@H]([C@@H](C)O)C(=O)N[C@@H](C)C(=O)N[C@@H]([C@@H](C)O)C(=O)N1)[C@@H](C)O [compound 76] ({C20 diacid-γGlu}-RCGTATCATERLA[Aad]FLQRSSF[Sar]A[NMeI]LSSTEVGSNT[Hyp]-NH2; disulfide 2-7)
0.014 | > 5000 | CC[C@H](C)[C@H](NC(=O)[C@H](CCC(N)=O)NC(=O)[C@H](Cc1c[nH]cn1)NC(=O)[C@H](C)NC(=O)[C@H](CC(C)C)NC(=O)[C@H](CCCNC(=N)N)NC(=O)[C@H](CCC(N)=O)NC(=O)[C@@H](NC(=O)[C@@H](NC(=O)[C@@H]1CSSC[C@H](NC(=O)[C@H](CCCCN)NC(=O)CC[C@H](NC(=O)CCCCCCCCCCCCCCCCCCC(=O)O)C(=O)O)C(=O)N[C@@H](CC(N)=O)C(=O)N[C@@H]([C@@H](C)O)C(=O)N[C@@H](C)C(=O)N[C@@H]([C@@H](C)O)C(=O)N1)[C@@H](C)O)C(C)C)C(=O)N[C@@H](Cc1ccc(O)cc1)C(=O)N[C@@H](CCC(N)=O)C(=O)N[C@@H](Cc1ccccc1)C(=O)N[C@H](C(=O)N[C@@H](CC(=O)O)C(=O)N[C@@H](CCCCN)C(=O)N[C@@H](CC(=O)O)C(=O)N[C@@H](CCCCN)C(=O)N[C@@H](CC(=O)O)C(=O)N[C@@H](CC(N)=O)C(=O)N[C@H](C(=O)N[C@@H](C)C(=O)N1CCC[C@H]1C(=O)N1CCC[C@H]1C(=O)N[C@H](C(=O)N[C@@H](CC(N)=O)C(=O)N[C@H](C(=O)NCC(=O)N[C@@H](CO)C(=O)N[C@@H](CC(N)=O)C(=O)NCC(=O)N1C[C@H](O)C[C@H]1C(N)=O)C(C)C)[C@@H](C)O)C(C)C)[C@@H](C)O [compound 77] ({C20 diacid-γGlu}-KCNTATCTVQRLAHQIYQFTDKDKDNVAPPTNVGSNG[Hyp]-NH2; disulfide 2-7)
0.014 | > 5000 | CC[C@H](C)[C@H](NC(=O)[C@H](CCC(N)=O)NC(=O)[C@H](Cc1c[nH]cn1)NC(=O)[C@H](C)NC(=O)[C@H](CC(C)C)NC(=O)[C@H](CCCNC(=N)N)NC(=O)[C@H](CCC(N)=O)NC(=O)[C@@H](NC(=O)[C@@H](NC(=O)[C@@H]1CSSC[C@H](NC(=O)[C@H](CCCCN)NC(=O)CC[C@H](NC(=O)CCCCCCCCCCCCCCCCCCC(=O)O)C(=O)O)C(=O)N[C@@H](CC(N)=O)C(=O)N[C@@H]([C@@H](C)O)C(=O)N[C@@H](C)C(=O)N[C@@H]([C@@H](C)O)C(=O)N1)[C@@H](C)O)C(C)C)C(=O)N[C@@H](C)C(=O)N[C@@H](CCC(N)=O)C(=O)N[C@@H](Cc1ccccc1)C(=O)N[C@@H](CO)C(=O)N[C@@H](CC(=O)O)C(=O)N[C@@H](CCCCN)C(=O)N[C@@H](CC(=O)O)C(=O)N[C@@H](CCCCN)C(=O)N[C@@H](CC(=O)O)C(=O)N[C@@H](CC(N)=O)C(=O)N[C@H](C(=O)N[C@@H](C)C(=O)N1CCC[C@H]1C(=O)N1CCC[C@H]1C(=O)N[C@H](C(=O)N[C@@H](CC(N)=O)C(=O)N[C@H](C(=O)NCC(=O)N[C@@H](CO)C(=O)N[C@@H](CC(N)=O)C(=O)NCC(=O)N1C[C@H](O)C[C@H]1C(N)=O)C(C)C)[C@@H](C)O)C(C)C [compound 79] ({C20 diacid-γGlu}-KCNTATCTVQRLAHQIAQFSDKDKDNVAPPTNVGSNG[Hyp]-NH2; disulfide 2-7)
0.015 | > 5000 | CC[C@H](C)[C@H](NC(=O)[C@H](CCC(N)=O)NC(=O)[C@H](Cc1c[nH]cn1)NC(=O)[C@H](C)NC(=O)[C@H](CC(C)C)NC(=O)[C@H](CCCNC(=N)N)NC(=O)[C@H](C)NC(=O)[C@@H](NC(=O)[C@@H](NC(=O)[C@@H]1CSSC[C@H](NC(=O)[C@H](CCCCN)NC(=O)CC[C@H](NC(=O)CCCCCCCCCCCCCCCCCCC(=O)O)C(=O)O)C(=O)N[C@@H](CC(N)=O)C(=O)N[C@@H]([C@@H](C)O)C(=O)N[C@@H](C)C(=O)N[C@@H]([C@@H](C)O)C(=O)N1)[C@@H](C)O)C(C)C)C(=O)N[C@@H](CC(N)=O)C(=O)N[C@@H](CCC(N)=O)C(=O)N[C@@H](Cc1ccccc1)C(=O)N[C@H](C(=O)N[C@@H](CC(=O)O)C(=O)N[C@@H](CCCCN)C(=O)N[C@@H](CC(=O)O)C(=O)N[C@@H](CCCCN)C(=O)N[C@@H](CC(=O)O)C(=O)N[C@@H](CC(N)=O)C(=O)N[C@H](C(=O)N[C@@H](C)C(=O)N1CCC[C@H]1C(=O)N1CCC[C@H]1C(=O)N[C@H](C(=O)N[C@@H](CC(N)=O)C(=O)N[C@H](C(=O)NCC(=O)N[C@@H](CO)C(=O)N[C@@H](CC(N)=O)C(=O)NCC(=O)N1C[C@H](O)C[C@H]1C(N)=O)C(C)C)[C@@H](C)O)C(C)C)[C@@H](C)O [compound 86] ({C20 diacid-γGlu}-KCNTATCTVARLAHQINQFTDKDKDNVAPPTNVGSNG[Hyp]-NH2; disulfide 2-7)
